The subject of one data set is HDAC (HeLa cell extract). Briefly: Primary assay: deacetylase activity, HeLa cell extract as source of HDAC. The format is biochemical, human.
For a further data set, the target named is T1, human HDAC1 (Homo sapiens, UniProt Q13547).
T1 construct: Full length human HDAC1 was cloned by PCR; Flag (C); implied by Ni-NTA purification) (N); made in house; host or cells: SF9 insect cells (baculovirus)
Briefly: Primary assay: deacetylase activity, recombinantly produced HDAC1. The format is biochemical. Conditions: Table 1; recombinant HDAC1; read-out: HDAC Inhibition (IC50 unless otherwise specified) HDAC1. From the text:
Briefly, this assay relies on the release of radioactive acetate from a radioactively labelled histone fragment by the action of HDAC enzyme. Test compounds, which inhibit HDAC, reduce the yield of radioactive acetate. Signal (e.g., scintillation counts) measured in the presence and absence of a test compound provide an indication of that compound's ability to inhibit HDAC activity. Decreased activity indicates increased inhibition by the test compound.
The histone fragment was an N-terminal sequence from histone H4, and it was labelled with radioactively labelled acetyl groups using tritiated acetylcoenzyme A (coA) in conjunction with an enzyme which is the histone acetyltransferase domain of the transcriptional coactivator p300. […] The acetylated peptide was then separated from free acetyl coA by size exclusion chromatography on Sephadex G-15 (Sigma G-15-120), using distilled H2O as the mobile phase.
After purification of the radiolabelled histone fragment, it was incubated with a source of HDAC (e.g., an extract of HeLa cells (a rich source of HDAC), recombinantly produced HDAC1 or HDAC2) and any released acetate was extracted into an organic phase and quantitatively determined using scintillation counting. By including a test compound with the source of HDAC, that compound's ability to inhibit the HDAC was determined.
Full length human HDAC1 was cloned by PCR using a λgt11 Jurkat cDNA library (Clontech-HL5012b). […] A second PCR was carried out in order to amplify a fragment containing the HDAC1 sequence fused to the Flag tag.
Amplification of recombinant viruses was performed according to the Pharmingen Instruction Manual.
For protein production, 2×10^7 cells were infected with the appropriate recombinant virus for 3 days. Cells were then harvested and spun at 3,000 rpm for 5 minutes. They were then washed twice in PBS and resuspended in 2 pellet volumes of lysis buffer (25 mM HEPES pH 7.9, 0.1 mM EDTA, 400 mM KCl, 10% glycerol, 0.1% NP-40, 1 mM AEBSF). […]
A source of HDAC (e.g., 2 μL of crude HeLa extract, 5 μL of HDAC1 or HDAC2; in elution buffer, as above) was incubated with 3 μL of radioactively labelled peptide along with appropriate dilutions of candidate compounds (1.5 μL) in a total volume of 150 μL of buffer (20 mM Tris pH 7.4, 10% glycerol). […] Radioactivity was measured using a Tri-Carb 21 00TR Liquid Scintillation Analyzer (Packard).
Percent activity (% activity) for each test compound was calculated as: % activity={(S^C−B)/(S°−B)}×100 wherein S^C denotes signal measured in the presence of enzyme and the compound being tested, S° denotes signal measured in the presence of enzyme but in the absence of the compound being tested, and B denotes the background signal measured in the absence of both enzyme and compound being tested.

The next data set concerns HeLa cells. Description: Secondary assay: cell proliferation WST-1, HeLa. The class given is cell-based. Conditions: Homo sapiens, read-out: Cell Proliferation Inhibition WST-1 (IC50 unless otherwise specified) HeLa. (Tetrazolium dyes change colour on reduction, which living cells bring about.)
The next data set concerns the target T2, human HDAC2 (Homo sapiens, UniProt Q92769).
T2 construct: Full length human HDAC2 was subcloned; Flag (carried over from the HDAC2-pFlag-CTC construct; inferred by analogy to HDAC1) (C); implied by Ni-NTA purification) (N); made in house; host or cells: SF9 insect cells (baculovirus)
Briefly: Primary assay: deacetylase activity, recombinantly produced HDAC2. The format is biochemical. Conditions: Table 1; recombinant HDAC2; read-out: HDAC Inhibition (IC50 unless otherwise specified) HDAC2.

In data set [1] the test system is K11 HPV E7 transformed human keratinocyte line. Description: Secondary assay: cell proliferation WST-1, K11. The format is cell-based. Conditions: Homo sapiens, Keratinocyte, Table 2, 48 h, read-out: Cell Proliferation Inhibition WST-1 (IC50 unless otherwise specified) K11.
The test system of the next data set is JURKAT human T-cell line. Briefly: Secondary assay: cell proliferation WST-1, Jurkat. The format is cell-based. Conditions: Homo sapiens, Table 2, 48 h, read-out: Cell Proliferation Inhibition WST-1 (IC50 unless otherwise specified) Jurkat.
Data set [2] deals with NHEK-Ad primary human adult keratinocyte line. Description: Secondary assay: cell proliferation WST-1, NHEK-Ad. The class given is cell-based. Conditions: Homo sapiens, Keratinocyte; Table 2; NHEK-AD; 48 h; read-out: Cell Proliferation Inhibition WST-1 (IC50 unless otherwise specified) NHEK-AD.
[3] abbreviates: Table 1, read-out: HDAC Inhibition (IC50 unless otherwise specified) HeLa.
Where [4] appears, read: comparative tables, HDAC inhibition, read-out: HeLa IC50.

SMILES strings stand for the structures. Like-named read-outs stand apart in the source and are kept apart here.

A word on the melting point: it is the temperature of the solid-liquid transition.

T1 sequence (Q13547 whole entry): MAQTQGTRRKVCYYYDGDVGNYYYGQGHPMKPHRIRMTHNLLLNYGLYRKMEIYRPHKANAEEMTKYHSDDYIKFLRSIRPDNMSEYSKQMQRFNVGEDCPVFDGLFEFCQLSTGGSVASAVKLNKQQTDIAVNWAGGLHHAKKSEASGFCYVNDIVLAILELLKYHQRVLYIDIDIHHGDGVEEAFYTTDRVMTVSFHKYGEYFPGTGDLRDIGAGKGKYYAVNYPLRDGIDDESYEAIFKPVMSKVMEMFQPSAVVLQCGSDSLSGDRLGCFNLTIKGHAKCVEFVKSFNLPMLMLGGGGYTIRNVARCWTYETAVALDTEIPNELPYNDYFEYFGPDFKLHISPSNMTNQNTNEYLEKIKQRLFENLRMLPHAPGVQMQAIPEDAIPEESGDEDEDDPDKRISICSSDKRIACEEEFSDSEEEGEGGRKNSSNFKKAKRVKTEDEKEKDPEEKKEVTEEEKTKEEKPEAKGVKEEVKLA
T2 sequence (Q92769 whole entry): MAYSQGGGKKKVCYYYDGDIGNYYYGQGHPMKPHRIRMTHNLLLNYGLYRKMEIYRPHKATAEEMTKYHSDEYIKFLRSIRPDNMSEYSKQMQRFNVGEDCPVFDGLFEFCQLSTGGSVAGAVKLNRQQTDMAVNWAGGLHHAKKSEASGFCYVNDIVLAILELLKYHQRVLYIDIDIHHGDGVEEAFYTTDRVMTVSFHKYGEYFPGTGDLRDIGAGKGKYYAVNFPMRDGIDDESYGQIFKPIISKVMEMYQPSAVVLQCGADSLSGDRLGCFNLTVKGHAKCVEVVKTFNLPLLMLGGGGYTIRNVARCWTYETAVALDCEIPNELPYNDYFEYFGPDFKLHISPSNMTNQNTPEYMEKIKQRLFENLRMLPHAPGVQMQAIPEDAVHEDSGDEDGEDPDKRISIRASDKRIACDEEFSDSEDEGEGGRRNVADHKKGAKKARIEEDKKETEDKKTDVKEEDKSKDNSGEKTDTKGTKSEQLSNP

Compound `Cc1ccc(S(=O)(=O)Nc2cccc(/C=C/C(=O)NO)c2)cc1` [PX089342, N-Hydroxy-3-[3(toluene-4-sulfonylamino)-phenyl]-acrylamide] gave a melting point of 147 °C. The IC50 in the data set on HDAC (HeLa cell extract) (setting [3]) came to 125 nM. In addition, the IC50 in the data set with HDAC (HeLa cell extract) (setting [4]) turned out to be 125 nM. Further, the IC50 on human HDAC1 was 50 nM. Moreover, the IC50 in the data set on HeLa cells (Table 2, 48 h) is 4100 nM.
`O=C(/C=C/c1cccc(NS(=O)(=O)c2ccccc2)c1)NO` [PX089344, 3-(3-Benzenesulfonylamino-phenyl)N-hydroxy-acrylamide] gave a melting point of 172 °C. Also, the IC50 in the data set with HDAC (HeLa cell extract) (setting [3]) was 89 nM. The IC50 with HDAC (HeLa cell extract) (setting [4]) was found to be 89 nM. For the same compound, the IC50 at human HDAC2 was found to be 172 nM. The IC50 with HeLa cells (Table 2, 48 h) amounted to 8900 nM.
Consider `CN(c1ccccc1)S(=O)(=O)c1cccc(/C=C/C(=O)NO)c1` [PX105685], for which the IC50 on human HDAC2 amounted to 600 nM; in the data set on HeLa cells (48 h), 7300 nM.
Regarding `COc1ccc(NS(=O)(=O)c2cccc(/C=C/C(=O)NO)c2)cc1` [PX105844], the melting point worked out at 186 °C. Moreover, the IC50 in the data set with HDAC (HeLa cell extract) (setting [3]) amounted to 15 nM. The IC50 at human HDAC1 turned out to be 29 nM. Besides, the IC50 in the data set with HeLa cells (Table 2, 48 h) turned out to be 400 nM.
Turning to `Cc1ccc(NS(=O)(=O)c2cccc(/C=C/C(=O)NO)c2)cc1` [PX106508], the melting point was 200 °C. The IC50 in the data set on HDAC (HeLa cell extract) (setting [3]) came out at 31 nM. Moreover, the IC50 in the data set on HDAC (HeLa cell extract) (setting [4]) is 31 nM. Further, the IC50 at human HDAC1 was found to be 90 nM. In addition, in the data set with HeLa cells (Table 2, 48 h), the IC50 worked out at 1600 nM. For the same compound, the IC50 in data set [1] stood at 3500 nM. Further, the IC50 with JURKAT human T-cell line was determined as 300 nM.
Consider `O=C(/C=C/c1cccc(S(=O)(=O)NCCc2ccccc2)c1)NO` [PX106512], for which the melting point was determined as 114 °C. The IC50 in the data set on HDAC (HeLa cell extract) (setting [3]) turned out to be 22 nM. Besides, in the data set on HDAC (HeLa cell extract) (setting [4]), the IC50 came to 22 nM. The IC50 at human HDAC1 was found to be 458 nM. Also, the IC50 in the data set on HeLa cells (Table 2, 48 h) stood at 1900 nM. In addition, the IC50 in data set [1] amounted to 2400 nM. The IC50 in the data set on JURKAT human T-cell line was found to be 210 nM.
The compound `O=C(/C=C/c1cccc(S(=O)(=O)Nc2ccc3ccccc3c2)c1)NO` [PX117445, N-Hydroxy-3-[3-(naphthalen-2-ylsulfamoyl)-phenyl]-acrylamide] yielded a melting point of 164 °C. Also, the IC50 with HDAC (HeLa cell extract) (setting [3]) came out at 2 nM. For the same compound, the IC50 in the data set on HeLa cells (Table 2, 48 h) is 1100 nM. Further, the IC50 in data set [1] turned out to be 1200 nM. The IC50 in data set [2] was 750 nM. Moreover, the IC50 in the data set with JURKAT human T-cell line was 130 nM.

(Values after patent publication US7407988B2, “Carbamic acid compounds comprising a sulfonamide linkage as HDAC inhibitors” (Topotarget UK Limited, priority 2000, dated 2008).)
